System: 454973-116-R2-J3-PDC spheroids, viability, % test/control
Experiment: Anticancer human tumor 454973-116-R2-J3-PDC patient-derived pancreatic carcinoma cell line growth inhibition [GQUAD]
Conditions: spheroids with HUVEC and MSC; for IC50: curve of first compound; for viability, T/C: stronger effect = lower value
How it was run: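 Multi-cell-type spheroids of tumor cells with HUVEC and mesenchymal stem cells, treated with drug combinations. Concentrations descend in half-log steps from near clinical Cmax, or from 10 microM where Cmax is unknown; viability read-out.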

[1] = second compound 0.0316 µM, first compound 0.0316 µM
[2] = second compound 0.0316 µM, first compound 0.1 µM
[3] = second compound 0.0316 µM, first compound 0.316 µM
[4] = second compound 0.0316 µM, first compound 1 µM
[5] = second compound 0.0316 µM, first compound 3.16 µM
[6] = second compound 0.0316 µM, first compound 10 µM
[7] = second compound 0.1 µM, first compound 0.0316 µM
[8] = second compound 0.1 µM, first compound 0.1 µM
[9] = second compound 0.1 µM, first compound 0.316 µM
[10] = second compound 0.1 µM, first compound 1 µM
[11] = second compound 0.1 µM, first compound 3.16 µM
[12] = second compound 0.1 µM, first compound 10 µM
[13] = second compound 0.316 µM, first compound 0.0316 µM
[14] = second compound 0.316 µM, first compound 0.1 µM
[15] = second compound 0.316 µM, first compound 0.316 µM
[16] = second compound 0.316 µM, first compound 1 µM
[17] = second compound 0.316 µM, first compound 3.16 µM
[18] = second compound 0.316 µM, first compound 10 µM
[19] = second compound 1 µM, first compound 0.0316 µM
[20] = second compound 1 µM, first compound 0.1 µM
[21] = second compound 1 µM, first compound 0.316 µM
[22] = second compound 1 µM, first compound 1 µM
[23] = second compound 1 µM, first compound 3.16 µM
[24] = second compound 1 µM, first compound 10 µM
[25] = second compound 3.16 µM, first compound 0.0316 µM
[26] = second compound 3.16 µM, first compound 0.1 µM
[27] = second compound 3.16 µM, first compound 0.316 µM
[28] = second compound 3.16 µM, first compound 1 µM
[29] = second compound 3.16 µM, first compound 3.16 µM
[30] = second compound 3.16 µM, first compound 10 µM
[31] = second compound 10 µM, first compound 0.0316 µM
[32] = second compound 10 µM, first compound 0.1 µM
[33] = second compound 10 µM, first compound 0.316 µM
[34] = second compound 10 µM, first compound 1 µM
[35] = second compound 10 µM, first compound 3.16 µM
[36] = second compound 10 µM, first compound 10 µM
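Note: spheroids exposed to compounds for seven days.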
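Throughout, for viability, T/C: 100% = DMSO vehicle control viability.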

CC(=O)O[C@H]1C(=O)[C@@]2(C)[C@H]([C@H](OC(=O)c3ccccc3)[C@]3(O)C[C@H](OC(=O)[C@H](O)[C@@H](NC(=O)c4ccccc4)c4ccccc4)C(C)=C1C3(C)C)[C@]1(OC(C)=O)CO[C@@H]1C[C@@H]2O + CN(C)c1ccc(Nc2c3ccc(NC(=O)CCN4CCCC4)cc3nc3cc(NC(=O)CCN4CCCC4)ccc23)cc1
IC50 (second compound 0.0316 µM): < 31.6 nM
IC50 (second compound 0.1 µM): < 31.6 nM
IC50 (second compound 0.316 µM): < 31.6 nM
IC50 (second compound 1 µM): < 31.6 nM
IC50 (second compound 3.16 µM): < 31.6 nM
IC50 (second compound 10 µM): < 31.6 nM
viability, T/C [1]: 16.5%
viability, T/C [2]: 8.43%
viability, T/C [3]: 9.5%
viability, T/C [4]: 7.36%
viability, T/C [5]: 8.24%
viability, T/C [6]: 10.1%
viability, T/C [7]: 16%
viability, T/C [8]: 11.7%
viability, T/C [9]: 7.58%
viability, T/C [10]: 6.11%
viability, T/C [11]: 8.15%
viability, T/C [12]: 7.98%
viability, T/C [13]: 14%
viability, T/C [14]: 10%
viability, T/C [15]: 8.64%
viability, T/C [16]: 7.04%
viability, T/C [17]: 8.84%
viability, T/C [18]: 10.1%
viability, T/C [19]: 16%
viability, T/C [20]: 8.67%
viability, T/C [21]: 6.76%
viability, T/C [22]: 7.25%
viability, T/C [23]: 6.69%
viability, T/C [24]: 9.71%
viability, T/C [25]: 15.5%
viability, T/C [26]: 9.08%
viability, T/C [27]: 8.56%
viability, T/C [28]: 6.91%
viability, T/C [29]: 6.53%
viability, T/C [30]: 8.28%
viability, T/C [31]: 21.6%
viability, T/C [32]: 12.1%
viability, T/C [33]: 8.85%
viability, T/C [34]: 7.09%
viability, T/C [35]: 8.15%
viability, T/C [36]: 8.56%

O=C(NO)c1cnc(N2CCN(S(=O)(=O)c3ccc4ccccc4c3)CC2)nc1 + Cc1cnc(CNC(=O)c2c(=O)c3ccc(N4CCCN(C)CC4)nc3n3c2sc2ccccc23)cn1
IC50 (second compound 0.0316 µM): 198 nM
IC50 (second compound 0.1 µM): 163 nM
IC50 (second compound 0.316 µM): 144 nM
IC50 (second compound 1 µM): 140 nM
IC50 (second compound 3.16 µM): 130 nM
IC50 (second compound 10 µM): < 31.6 nM
viability, T/C [1]: 105%
viability, T/C [2]: 81.9%
viability, T/C [3]: 28.5%
viability, T/C [4]: 1.33%
viability, T/C [5]: 0.09%
viability, T/C [6]: 0.11%
viability, T/C [7]: 87.1%
viability, T/C [8]: 68.6%
viability, T/C [9]: 24.8%
viability, T/C [10]: 1.02%
viability, T/C [11]: 0.59%
viability, T/C [12]: 0.1%
viability, T/C [13]: 67.4%
viability, T/C [14]: 61.9%
viability, T/C [15]: 23.6%
viability, T/C [16]: 0.34%
viability, T/C [17]: 0.11%
viability, T/C [18]: 0.12%
viability, T/C [19]: 59.5%
viability, T/C [20]: 64.1%
viability, T/C [21]: 21.8%
viability, T/C [22]: 0.41%
viability, T/C [23]: 0.09%
viability, T/C [24]: 0.13%
viability, T/C [25]: 67.9%
viability, T/C [26]: 60.9%
viability, T/C [27]: 13.3%
viability, T/C [28]: 0.48%
viability, T/C [29]: 0.95%
viability, T/C [30]: 0.53%
viability, T/C [31]: 0.19%
viability, T/C [32]: 21.1%
viability, T/C [33]: 0.26%
viability, T/C [34]: 0.2%
viability, T/C [35]: 0.19%
viability, T/C [36]: 0.19%

Cn1ncnc1[C@H]1c2n[nH]c(=O)c3cc(F)cc(c23)N[C@@H]1c1ccc(F)cc1 + Cc1[nH]c2ccc(F)cc2c1-c1nc2c3cccnc3c3ncccc3c2[nH]1
IC50 (second compound 0.0316 µM): > 316 nM
IC50 (second compound 0.1 µM): > 316 nM
IC50 (second compound 0.316 µM): > 316 nM
IC50 (second compound 1 µM): > 316 nM
IC50 (second compound 3.16 µM): > 316 nM
IC50 (second compound 10 µM): > 316 nM
viability, T/C (second compound 0.0316 µM, first compound 0.000999 µM): 115%
viability, T/C (second compound 0.0316 µM, first compound 0.00316 µM): 95.3%
viability, T/C (second compound 0.0316 µM, first compound 0.00999 µM): 101%
viability, T/C [1]: 87.7%
viability, T/C (second compound 0.0316 µM, first compound 0.0999 µM): 97.4%
viability, T/C [3]: 84%
viability, T/C (second compound 0.1 µM, first compound 0.000999 µM): 93.6%
viability, T/C (second compound 0.1 µM, first compound 0.00316 µM): 97.6%
viability, T/C (second compound 0.1 µM, first compound 0.00999 µM): 94.4%
viability, T/C [7]: 104%
viability, T/C (second compound 0.1 µM, first compound 0.0999 µM): 86.1%
viability, T/C [9]: 77.6%
viability, T/C (second compound 0.316 µM, first compound 0.000999 µM): 101%
viability, T/C (second compound 0.316 µM, first compound 0.00316 µM): 99.6%
viability, T/C (second compound 0.316 µM, first compound 0.00999 µM): 91.9%
viability, T/C [13]: 92.7%
viability, T/C (second compound 0.316 µM, first compound 0.0999 µM): 90.7%
viability, T/C [15]: 83.8%
viability, T/C (second compound 1 µM, first compound 0.000999 µM): 107%
viability, T/C (second compound 1 µM, first compound 0.00316 µM): 104%
viability, T/C (second compound 1 µM, first compound 0.00999 µM): 91.6%
viability, T/C [19]: 98%
viability, T/C (second compound 1 µM, first compound 0.0999 µM): 83.5%
viability, T/C [21]: 81%
viability, T/C (second compound 3.16 µM, first compound 0.000999 µM): 93.9%
viability, T/C (second compound 3.16 µM, first compound 0.00316 µM): 98.5%
viability, T/C (second compound 3.16 µM, first compound 0.00999 µM): 92.1%
viability, T/C [25]: 83%
viability, T/C (second compound 3.16 µM, first compound 0.0999 µM): 82.3%
viability, T/C [27]: 82%
viability, T/C (second compound 10 µM, first compound 0.000999 µM): 87.4%
viability, T/C (second compound 10 µM, first compound 0.00316 µM): 100%
viability, T/C (second compound 10 µM, first compound 0.00999 µM): 93%
viability, T/C [31]: 78.4%
viability, T/C (second compound 10 µM, first compound 0.0999 µM): 82.4%
viability, T/C [33]: 76.1%

C=CCn1c(=O)c2cnc(Nc3ccc(N4CCN(C)CC4)cc3)nc2n1-c1cccc(C(C)(C)O)n1 + Cc1cnc(CNC(=O)c2c(=O)c3ccc(N4CCCN(C)CC4)nc3n3c2sc2ccccc23)cn1
IC50 (second compound 0.0316 µM): 190 nM
IC50 (second compound 0.1 µM): 121 nM
IC50 (second compound 0.316 µM): 110 nM
IC50 (second compound 1 µM): 263 nM
IC50 (second compound 3.16 µM): 186 nM
IC50 (second compound 10 µM): < 31.6 nM
viability, T/C [1]: 98%
viability, T/C [2]: 78.8%
viability, T/C [3]: 27%
viability, T/C [4]: 11.7%
viability, T/C [5]: 6.73%
viability, T/C [6]: 10.2%
viability, T/C [7]: 76.5%
viability, T/C [8]: 53.6%
viability, T/C [9]: 29.8%
viability, T/C [10]: 12%
viability, T/C [11]: 8.47%
viability, T/C [12]: 8.54%
viability, T/C [13]: 57.6%
viability, T/C [14]: 49.7%
viability, T/C [15]: 37.2%
viability, T/C [16]: 18.1%
viability, T/C [17]: 9.06%
viability, T/C [18]: 9.69%
viability, T/C [19]: 60.9%
viability, T/C [20]: 59.2%
viability, T/C [21]: 48.2%
viability, T/C [22]: 22.4%
viability, T/C [23]: 13.7%
viability, T/C [24]: 13.6%
viability, T/C [25]: 58.3%
viability, T/C [26]: 63.1%
viability, T/C [27]: 40.8%
viability, T/C [28]: 23.9%
viability, T/C [29]: 18.2%
viability, T/C [30]: 21.9%
viability, T/C [31]: 0.34%
viability, T/C [32]: 20.9%
viability, T/C [33]: 23.4%
viability, T/C [34]: 0.26%
viability, T/C [35]: 0.3%
viability, T/C [36]: 0.38%

COc1cc(C2c3cc4c(cc3C(OC3OC5COC(C)OC5C(O)C3O)C3COC(=O)C23)OCO4)cc(OC)c1O (stereo not given) + Cc1cnc(CNC(=O)c2c(=O)c3ccc(N4CCCN(C)CC4)nc3n3c2sc2ccccc23)cn1
IC50 (second compound 0.0316 µM): 644 nM
IC50 (second compound 0.1 µM): 507 nM
IC50 (second compound 0.316 µM): 469 nM
IC50 (second compound 1 µM): 1060 nM
IC50 (second compound 3.16 µM): 1800 nM
IC50 (second compound 10 µM): < 31.6 nM
viability, T/C [1]: 100%
viability, T/C [2]: 80.6%
viability, T/C [3]: 70.7%
viability, T/C [4]: 39.3%
viability, T/C [5]: 17.8%
viability, T/C [6]: 12.4%
viability, T/C [7]: 85%
viability, T/C [8]: 73.7%
viability, T/C [9]: 59.2%
viability, T/C [10]: 35%
viability, T/C [11]: 28.6%
viability, T/C [12]: 12%
viability, T/C [13]: 75.6%
viability, T/C [14]: 73.9%
viability, T/C [15]: 53%
viability, T/C [16]: 38%
viability, T/C [17]: 29.4%
viability, T/C [18]: 16.7%
viability, T/C [19]: 67.8%
viability, T/C [20]: 61.8%
viability, T/C [21]: 55.9%
viability, T/C [22]: 51.5%
viability, T/C [23]: 40.5%
viability, T/C [24]: 21.9%
viability, T/C [25]: 66.9%
viability, T/C [26]: 68.4%
viability, T/C [27]: 58.3%
viability, T/C [28]: 53.7%
viability, T/C [29]: 47.5%
viability, T/C [30]: 31.3%
viability, T/C [31]: 16.2%
viability, T/C [32]: 17.1%
viability, T/C [33]: 58.4%
viability, T/C [34]: 49.7%
viability, T/C [35]: 29.3%
viability, T/C [36]: 0.59%

Reference: PubChem BioAssay AID2060508 (Molecular Pharmacology Branch, DTP, NCI, 2025)
